According to patent US11718622B2, “Heterocyclic adenosine receptor antagonists” (Exelixis, Inc., priority 2020, dated 2023):

Key:
[1] = target: Adenosine A2a (ADORA2A) receptor (Homo sapiens (Human), UniProt P29274); test: ADORA2A Receptor Binding Assay; conditions: radioligand binding, membrane stock
Experimental: ADORA1A and ADORA2A Receptor Binding Assay
2 μL of each compound (test compounds, high control compound, low control compound) was transferred into individual wells of an assay plate. Also to each individual well, 98 μL of Adenosine A1a membrane stock (for ADORA1A Receptor Binding Assay) or Adenosine A2a membrane stock (for ADORA2A Receptor Binding Assay) was dispensed, followed by 100 μL of radio-labeled ligand. Plates were then sealed, and incubated at room temperature for 1 hour (for ADORA1A Receptor Binding Assay) or 2 hours (for ADORA2A Receptor Binding Assay). Unifilter-96 GF/C filter plates were pre-soaked with 50 μL of 0.3% PEI per well for at least 30 min at room temperature. When binding assays were completed, reaction mixtures were filtered through GF/C plates using a Perkin Elmer Filtermate Harvester, and then each plate was washed 4× with cold wash buffer. Filter plates were then dried for 1 hour at 50° C. After drying, the bottom of the filter plate wells was sealed using Perkin Elmer Unifilter-96 backing seal tape. 50 μL of Perkin Elmer Microscint 20 cocktail was then added, and the top of the filter plate was then sealed using Perkin Elmer TopSeal-A sealing film. ^3H trapped on the filter was counted using a Perkin Elmer MicroBeta2 Reader. Data analysis was performed using GraphPad Prism 5 software, and the “Inhibition [% Control]” was calculated using the following equation: % Inh=(1−Background subtracted Assay value/Background subtracted HC value)*100.

[2] = target: Adenosine A2B (ADORA2B) receptor (Homo sapiens (Human), UniProt P29275); test: ADORA2B Receptor Binding Assay; conditions: radioligand binding, membrane stock
Adenosine A2B (ADORA2B) receptor, sequence (P29275 whole entry): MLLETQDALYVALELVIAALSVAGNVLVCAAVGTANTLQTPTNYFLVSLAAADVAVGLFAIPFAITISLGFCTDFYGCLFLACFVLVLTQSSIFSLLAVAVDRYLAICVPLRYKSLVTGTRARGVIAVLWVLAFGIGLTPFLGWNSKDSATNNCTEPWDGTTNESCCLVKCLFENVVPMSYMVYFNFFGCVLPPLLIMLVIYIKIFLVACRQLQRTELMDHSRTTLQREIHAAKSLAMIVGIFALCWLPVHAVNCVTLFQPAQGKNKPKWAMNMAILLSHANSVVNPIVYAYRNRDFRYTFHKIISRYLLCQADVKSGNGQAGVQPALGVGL
Experimental: ADORA2B Receptor Binding Assay
100 μL of Adenosine A2B membrane stock was dispensed into individual wells of an assay plate. 1 μL of each compound (test compounds, high control compound, low control compound) was then transferred into individual wells, followed by 100 μL of radio-labeled ligand. Plates were then sealed, and incubated at room temperature for 1 hour. Unifilter-96 GF/C filter plates were pre-soaked with 50 μL of 0.5% BSA per well for at least 30 min at room temperature. When binding assays were completed, reaction mixtures were filtered through GF/C plates using a Perkin Elmer Filtermate Harvester, and then each plate was washed 4× with cold wash buffer. Filter plates were then dried for 1 hour at 50° C. After drying, the bottom of the filter plate wells was sealed using Perkin Elmer Unifilter-96 backing seal tape. 50 μL of Perkin Elmer Microscint 20 cocktail was then added, and the top of the filter plate was then sealed using Perkin Elmer TopSeal-A sealing film. ^3H trapped on the filter was counted using a Perkin Elmer MicroBeta2 Reader. Data analysis was performed using GraphPad Prism 5 software, and the “Inhibition[% Control]” was calculated using the following equation: % Inh=(1−Background subtracted Assay value/Background subtracted HC value)*100.

Adenosine A2a (ADORA2A) receptor, sequence (P29274 whole entry): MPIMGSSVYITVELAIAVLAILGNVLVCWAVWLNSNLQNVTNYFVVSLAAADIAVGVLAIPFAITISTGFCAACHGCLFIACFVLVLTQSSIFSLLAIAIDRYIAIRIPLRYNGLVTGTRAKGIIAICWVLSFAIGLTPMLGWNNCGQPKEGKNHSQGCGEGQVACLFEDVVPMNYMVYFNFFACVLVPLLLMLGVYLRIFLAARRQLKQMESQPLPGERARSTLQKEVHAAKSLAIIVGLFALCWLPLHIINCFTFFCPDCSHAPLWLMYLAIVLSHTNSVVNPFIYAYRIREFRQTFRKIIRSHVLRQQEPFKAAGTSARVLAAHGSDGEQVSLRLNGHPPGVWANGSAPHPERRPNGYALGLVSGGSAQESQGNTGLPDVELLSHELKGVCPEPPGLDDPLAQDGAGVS

Structure (SMILES) | IC50 [1] | IC50 [2]
CC(=O)c1cccc(-c2nc(NC(=O)C3CC3)cc3nc(C)nn23)c1 [Compound 96, N-[5-(3-acetylphenyl)-2-methyl-[1,2,4]triazolo[1,5-c]pyrimidin-7-yl]cyclopropanecarboxamide] | 100 to 1000 nM | 100 to 1000 nM
COc1ccc(Cc2nc3cc(N)nc(-c4ccc(C)o4)n3n2)cc1 [Compound 3, 2-[(4-methoxyphenyl)methyl]-5-(5-methylfuran-2-yl)-[1,2,4]triazolo[1,5-c]pyrimidin-7-amine] | 10 to 100 nM | 100 to 1000 nM
Cc1ccc(-c2nc(N)cc3nc(C(C)C)nn23)o1 [Compound 13, 5-(5-methylfuran-2-yl)-2-propan-2-yl-[1,2,4]triazolo[1,5-c]pyrimidin-7-amine] | < 10 nM | 100 to 1000 nM
CC(=O)Nc1cc2nc(C3CC3)nn2c(-c2ccc(C)o2)n1 [Compound 61, N-[2-cyclopropyl-5-(5-methylfuran-2-yl)-[1,2,4]triazolo[1,5-c]pyrimidin-7-yl]acetamide] | < 10 nM | 10 to 100 nM
Cc1nc2c(C)c(N)nc(-c3ccc(C)o3)n2n1 [Compound 22, 2,8-dimethyl-5-(5-methylfuran-2-yl)-[1,2,4]triazolo[1,5-c]pyrimidin-7-amine] | < 10 nM | 10 to 100 nM
CC(=O)Nc1cc2nc(C(F)F)nn2c(-c2ccc(C)o2)n1 [Compound 126, N-[2-(difluoromethyl)-5-(5-methylfuran-2-yl)-[1,2,4]triazolo[1,5-c]pyrimidin-7-yl]acetamide] | < 10 nM | < 10 nM
Cc1ccc(-c2nc3[nH]ncc3c3nc(C(F)(F)F)nn23)o1 [Compound 153, 7-(5-methylfuran-2-yl)-4-(trifluoromethyl)-3,5,6,8,10,11-hexazatricyclo[7.3.0.0^2,6]dodeca-1(9),2,4,7,11-pentaene] | < 10 nM | 10 to 100 nM
Cc1nc2c(Cl)c(N)nc(-c3cccc(Cl)c3)n2n1 [Compound 78, 8-chloro-5-(3-chlorophenyl)-2-methyl-[1,2,4]triazolo[1,5-c]pyrimidin-7-amine] | < 10 nM | 10 to 100 nM
Cc1ccc(-c2nc3c(c4nc(C(C)C)nn24)CC(=O)N3)o1 [Compound 98, 7-(5-methylfuran-2-yl)-4-propan-2-yl-3,5,6,8,10-pentazatricyclo[7.3.0.0^2,6]dodeca-1(9),2,4,7-tetraen-11-one] | 10 to 100 nM | 100 to 1000 nM
O=C(Nc1cc2nc(C3COC3)nn2c(-c2ccco2)n1)C1CC1 [Compound 92, N-[5-(furan-2-yl)-2-(oxetan-3-yl)-[1,2,4]triazolo[1,5-c]pyrimidin-7-yl]cyclopropanecarboxamide] | < 10 nM | 10 to 100 nM

Now from value to compound:

IC50 [1] | IC50 [2] | Structure (SMILES)
< 10 nM | 10 to 100 nM | CCC(=O)Nc1cn2cc(C)nc2c(-c2ccco2)n1 [Compound 220, N-[8-(furan-2-yl)-2-methylimidazo[1,2-a]pyrazin-6-yl]propanamide]
10 to 100 nM | 100 to 1000 nM | COC(=O)Nc1cn2cc(C)nc2c(-c2ccco2)n1 [Compound 218, methyl N-[8-(furan-2-yl)-2-methylimidazo[1,2-a]pyrazin-6-yl]carbamate]
10 to 100 nM | 10 to 100 nM | CCNC(=O)Nc1cc2nc(C)nn2c(-c2ccco2)n1 [Compound 155, 1-ethyl-3-[5-(furan-2-yl)-2-methyl-[1,2,4]triazolo[1,5-c]pyrimidin-7-yl]urea]
< 10 nM | < 10 nM | Cc1nc2c(-c3ccc(C)o3)nc(N)c(Cl)n2n1 [Compound 175, 5-chloro-2-methyl-8-(5-methylfuran-2-yl)-[1,2,4]triazolo[1,5-a]pyrazin-6-amine]
100 to 1000 nM | 100 to 1000 nM | CCS(=O)(=O)Nc1cn2cc(C)nc2c(-c2ccco2)n1 [Compound 225, N-[8-(furan-2-yl)-2-methylimidazo[1,2-a]pyrazin-6-yl]ethanesulfonamide]
